{"source": "patent US7521423B2", "about": "“Exendin pharmaceutical compositions” (Amylin Pharmaceuticals, Inc., priority 1996, dated 2009)", "key": {"gastric emptying [1]": {"system": "gastric emptying", "assay": "Gastric emptying inhibition by exendin-4 analogs, methods of Example 1 (Example 2)", "type": "in vivo, Male HSD rats", "details": "for ED50 of inhibition of gastric emptying: Example 2, FIG. 3; for ED50 of inhibition of gastric emptying / EC50 (inhibition of gastric emptying): 20 min after gavage; for EC50 (inhibition of gastric emptying): Example 2, Table II; for effect on gastric emptying (in words): Example 2, dose-response study", "excerpt": "Twenty minutes after gavage, rats were anesthetized using 5% halothane, the stomach exposed and clamped at the pyloric and lower esophageal sphincters using artery forceps, removed and opened into an alkaline solution which was made up to a fixed volume. Stomach content was derived from the intensity of the phenol red in the alkaline solution, measured by absorbance at a wavelength of 560 nm. In separate experiments on 7 rats, the stomach and small intestine were both excised and opened into an alkaline solution. […] To account for a maximal dye recovery of less than 100%, percent of stomach contents remaining after 20 min were expressed as a fraction of the gastric contents recovered from control rats sacrificed immediately after gavage in the same experiment. Percent gastric contents remaining =(absorbance at 20 min)/(absorbance at 0 mm)×100."}, "gastric emptying [2]": {"system": "gastric emptying", "assay": "Antagonism by exendin[9-39] of gastric emptying inhibition by exendin-4 and GLP-1[7-36]NH2 (Example 3)", "type": "in vivo, rats", "protocol": "(sc), n=6; and 0.3 mg exendin[9-39] (sc), n=6 on the retention of gastric contents 20 minutes after gavage. Also shown are saline controls at t=0 and t=20 min. The error bars show standard error of the mean. […] Exendin[9-39] (sc) alone had no effect on gastric emptying.\n(iv), n=5 on the retention of gastric contents 20 minutes after gavage. Also shown are saline controls at t+0 and t=20 min. The error bars show standard error of the mean.\n(iv), n=3 on the retention of gastric contents 20 minutes after gavage. Also shown are saline controls at t=0 and t=20 min. The error bars show standard error of the mean. […] When injected along with GLP-1[7-36]NH2, exendin[9-39]\n(§1) Conscious rats received by gavage, 1.5 ml of an acaloric gel containing 1.5% methyl cellulose (M-0262, Sigma Chemical Co, St Louis, Mo.) and 0.05% phenol red indicator. Twenty minutes after gavage, rats were anesthetized using 5% halothane, the stomach exposed and clamped at the pyloric and lower esophageal sphincters using artery forceps, removed and opened into an alkaline solution which was made up to a fixed volume. Stomach content was derived from the intensity of the phenol red in the alkaline solution, measured by absorbance at a wavelength of 560 nm. In separate experiments on 7 rats, the stomach and small intestine were both excised and opened into an alkaline solution. The quantity of phenol red that could be recovered from the upper gastrointestinal tract within 20 minutes of gavage was 89±4%; dye which appeared to bind irrecoverably to the gut luminal surface may have accounted for the balance. To account for a maximal dye recovery of less than 100%, percent of stomach contents remaining after 20 min were expressed as a fraction of the gastric contents recovered from control rats sacrificed immediately after gavage in the same experiment. Percent gastric contents remaining =(absorbance at 20 min)/(absorbance at 0 mm)×100.\nIn these studies, exendin[9-39] was give both subcutaneously (sc) and intravenously (iv)."}, "gastric emptying [3]": {"system": "gastric emptying", "assay": "Gastric emptying in conscious rats, retention of phenol red methyl cellulose gel 20 min after gavage (Example 1)", "type": "in vivo, Male Harlan Sprague Dawley (HSD) rats", "details": "for ED50 of inhibition of gastric emptying: Example 1, FIG. 2, subcutaneous injection, 20 min after gavage; for % remaining (percent of gastric contents remaining 20 minutes after gavage): normal rats; for effect on gastric emptying (in words): Example 1, dose-response study", "protocol": "As described in Example 1, gastric emptying was measured in normal Sprague Dawley rats using the retention of an acaloric methylcellulose gel containing Phenol Red delivered by gavage. Dye content in stomachs removed after sacrifice 20 minutes later was determined spectroscopically, and was compared to that in rats sacrificed immediately after gavage to assess emptying.\nThis experiment followed a modification of the method of Scarpignato, et al., Arch. Int. Pharmacodyn. Ther. 246:286-94 (1980).\nMale Harlan Sprague Dawley (HSD) rats were used. All animals were housed at 22.7±0.8 C in a 12:12 hour light:dark cycle (experiments being performed during the light cycle) and were fed and watered ad libitum (Diet LM-485, Teklad, Madison, Wis.).\nThe determination of gastric emptying by the method described below was performed after a fast of ˜20 hours to ensure that the stomach contained no chyme that would interfere with spectrophotometric absorbance measurements.\nas §1\nIn baseline studies, with no drug treatment, gastric emptying over 20 min was determined. […]"}, "food intake": {"system": "food intake", "details": "mice, peripheral injection; cited from earlier work"}, "[4]": {"system": "pentagastrin-induced gastric acid secretion", "details": "reported, Gedulin et al. 1997; cited from earlier work"}}, "note": "Entries after “also recorded” stand apart in the source; their conditions may differ. No end group written: not given here.", "data": [{"substance": "exendin-4 acid", "values": [{"measurement": "ED50 of inhibition of gastric emptying", "setting": "gastric emptying [1]", "value": 0.12, "unit": "µg"}, {"measurement": "EC50 (inhibition of gastric emptying)", "setting": "gastric emptying [1]", "value": 0.12, "unit": "µg"}, {"measurement": "effect on gastric emptying (in words)", "setting": "gastric emptying [1]", "value": "potent inhibitors of gastric emptying; also recorded: dose dependently inhibiting gastric emptying"}]}, {"substance": "exendin[9-39]", "values": [{"measurement": "effect on gastric emptying", "setting": "gastric emptying [2]; 0.3 mg exendin[9-39] (sc) alone", "value": "no effect"}, {"measurement": "antagonism of the effect of exendin-4 on gastric emptying inhibition", "setting": "gastric emptying [2]; 0.3 mg exendin[9-39] (sc) plus 1.0 μg exendin-4 (sc), FIG. 4", "value": "did not antagonize"}, {"measurement": "antagonism of the effect of exendin-4 on gastric emptying inhibition", "setting": "gastric emptying [2]; 0.5 mg exendin[9-39] (iv) plus 0.3 μg exendin-4 (sc), FIG. 5", "value": "did not antagonize"}, {"measurement": "antagonism of the effect of GLP-1[7-36]NH2 on gastric emptying inhibition", "setting": "gastric emptying [2]; 0.5 mg exendin[9-39] (iv) plus 10 μg GLP-1[7-36]NH2 (sc), FIG. 7", "value": "did not antagonize"}, {"measurement": "antagonism of the effect of GLP-1[7-36]NH2 on gastric emptying inhibition", "setting": "gastric emptying [2]; 3 mg exendin[9-39] (sc) plus 10 μg GLP-1[7-36]NH2 (sc), FIG. 6", "value": "did not antagonize"}, {"measurement": "reversal / block of the effect of exendin-4 on gastric emptying", "setting": "gastric emptying [2]; exendin[9-39] administered sc or iv, FIGS. 4 and 5", "value": "not reversed; also recorded: did not block"}, {"measurement": "block of the effect of GLP-1[7-36]NH2 on gastric emptying", "setting": "gastric emptying [2]; exendin[9-39] sc or iv, FIGS. 6 and 7", "value": "did not block"}]}, {"substance": "GLP-1[7-36]NH2 [GLP-1 (7-36)NH2]", "values": [{"measurement": "ED50 of inhibition of gastric emptying", "setting": "gastric emptying [3]", "value": "approximately 9 μg"}, {"measurement": "% remaining (percent of gastric contents remaining 20 minutes after gavage)", "setting": "gastric emptying [3]; dose 0.100 μg", "value": "42.00 (7) %"}, {"measurement": "% remaining (percent of gastric contents remaining 20 minutes after gavage)", "setting": "gastric emptying [3]; dose 0.300 μg", "value": "29.60 (7) %"}, {"measurement": "% remaining (percent of gastric contents remaining 20 minutes after gavage)", "setting": "gastric emptying [3]; dose 1.000 μg", "value": "37.20 (9) %"}, {"measurement": "% remaining (percent of gastric contents remaining 20 minutes after gavage)", "setting": "gastric emptying [3]; dose 3.000 μg", "value": "56.60 (10) %"}, {"measurement": "% remaining (percent of gastric contents remaining 20 minutes after gavage)", "setting": "gastric emptying [3]; dose 10.000 μg", "value": "87.90 (11) %"}, {"measurement": "% remaining (percent of gastric contents remaining 20 minutes after gavage)", "setting": "gastric emptying [3]; dose 100.000 μg", "value": "103.60 (7) %"}, {"measurement": "inhibition of food intake", "setting": "food intake", "value": "not observed"}, {"measurement": "inhibition of pentagastrin-induced gastric acid secretion", "setting": "[4]", "value": "inhibitory effect"}, {"measurement": "effect on retention of gastric contents 20 minutes after gavage", "setting": "gastric emptying [2]; 10 μg GLP-1[7-36]NH2 (sc) alone, FIGS. 6 and 7", "value": "potently inhibited gastric emptying"}]}, {"substance": "exendin-3", "values": [{"measurement": "ED50 of inhibition of gastric emptying", "setting": "gastric emptying [3]", "value": "~0.1", "unit": "µg"}, {"measurement": "effect on gastric emptying (in words)", "setting": "gastric emptying [3]; listed as exendin 3", "value": "dose-dependently inhibited gastric emptying"}, {"measurement": "effect on gastric emptying (in words)", "setting": "gastric emptying [3]; listed as exendin-3", "value": "potent inhibitors of gastric emptying"}, {"measurement": "% remaining (percent of gastric contents remaining 20 minutes after gavage)", "setting": "gastric emptying [3]; dose 0.010 μg", "value": "58.240 (3) %"}, {"measurement": "% remaining (percent of gastric contents remaining 20 minutes after gavage)", "setting": "gastric emptying [3]; dose 0.100 μg", "value": "70.770 (3) %"}, {"measurement": "% remaining (percent of gastric contents remaining 20 minutes after gavage)", "setting": "gastric emptying [3]; dose 0.300 μg", "value": "86.420 (3) %"}, {"measurement": "% remaining (percent of gastric contents remaining 20 minutes after gavage)", "setting": "gastric emptying [3]; dose 1.000 μg", "value": "95.330 (3) %"}, {"measurement": "% remaining (percent of gastric contents remaining 20 minutes after gavage)", "setting": "gastric emptying [3]; dose 10.000 μg", "value": "101.760 (3) %"}, {"measurement": "% remaining (percent of gastric contents remaining 20 minutes after gavage)", "setting": "gastric emptying [3]; dose 100.000 μg", "value": "103.640 (3) %"}]}, {"substance": "rat amylin (KCNTATCATQRLANFLVRSSNNLGPVLPPTNVGSNTY; ends and bridges not checked; cysteine pairing not given here; UniProt P12969 38-74, looked up) [second positive control for gastric emptying]", "values": [{"measurement": "% remaining (percent of gastric contents remaining 20 minutes after gavage)", "setting": "gastric emptying [3]; dose 0.010 μg", "value": "37.60 (2) %"}, {"measurement": "% remaining (percent of gastric contents remaining 20 minutes after gavage)", "setting": "gastric emptying [3]; dose 0.100 μg", "value": "52.70 (6) %"}, {"measurement": "% remaining (percent of gastric contents remaining 20 minutes after gavage)", "setting": "gastric emptying [3]; dose 0.300 μg", "value": "58.20 (4) %"}, {"measurement": "% remaining (percent of gastric contents remaining 20 minutes after gavage)", "setting": "gastric emptying [3]; dose 1.000 μg", "value": "96.80 (9) %"}, {"measurement": "% remaining (percent of gastric contents remaining 20 minutes after gavage)", "setting": "gastric emptying [3]; dose 3.000 μg", "value": "108.000 (4) %"}, {"measurement": "% remaining (percent of gastric contents remaining 20 minutes after gavage)", "setting": "gastric emptying [3]; dose 10.000 μg", "value": "101.10 (6) %"}, {"measurement": "% remaining (percent of gastric contents remaining 20 minutes after gavage)", "setting": "gastric emptying [3]; dose 100.000 μg", "value": "101.20 (2) %"}]}, {"substance": "^14Leu, ^25Phe exendin-4", "values": [{"measurement": "ED50 of inhibition of gastric emptying", "setting": "gastric emptying [1]", "value": 0.29, "unit": "µg"}, {"measurement": "EC50 (inhibition of gastric emptying)", "setting": "gastric emptying [1]", "value": 0.29, "unit": "µg"}, {"measurement": "effect on gastric emptying (in words)", "setting": "gastric emptying [1]", "value": "potent inhibitors of gastric emptying; also recorded: dose dependently inhibiting gastric emptying"}]}]}
